According to doi:10.1101/2025.02.03.636334v1 (biorxiv, 2025):
≈ marks a conversion by molar mass, not a printed value.

Each compound was assayed on M. tuberculosis H37Rv (assay: microbe, parasite or virus in culture). Details: Mycobacterium tuberculosis, 192 h, read-out: Mtb MIC (µM).

Compound | MIC
O=c1[nH]c(SCc2cc(F)cc3c2OC(c2ccccc2)OC3)nc2sc3c(c12)CCCC3 (stereo not drawn) [Z13684502] | 100 µM (≈ 48.1 µg/mL)
O=C(Nc1ccc(F)cc1)C(c1ccccc1)N1C(=O)NC(c2ccccc2)(c2ccccc2)C1=O (stereo not drawn) [Z14471296] | 100 µM (≈ 48 µg/mL)
O=C(CN1C(=O)NC(c2ccccc2)(c2ccccc2)C1=O)NC(c1ccccc1)c1ccccc1 [Z14474580] | 100 µM (≈ 47.6 µg/mL)
CC(NC(=O)CN1C(=O)NC(c2ccccc2)(c2ccccc2)C1=O)c1ccc(Cl)cc1 (stereo not drawn) [Z14475560] | 100 µM (≈ 44.8 µg/mL)
O=C(COC(=O)c1cc(-c2ccccc2)nn1-c1ccccc1)NC(c1ccccc1)c1ccccc1 [Z15852380] | 100 µM (≈ 48.8 µg/mL)
O=C(COC(=O)c1cc(-c2cccc3ccccc23)nc2ccccc12)Nc1cc(C(F)(F)F)ccc1N1CCOCC1 [Z18816890] | 100 µM (≈ 58.6 µg/mL)
O=C1NC2(CCCC2)C(=O)N1Cc1cn(-c2ccccc2)nc1-c1ccc(Cl)cc1 [Z25701709] | 100 µM (≈ 42.1 µg/mL)
Cc1cccc(-c2nn(-c3ccccc3)cc2C(=O)Oc2ccccc2-c2nc3ccccc3s2)c1 [Z26889353] | 100 µM (≈ 48.8 µg/mL)
O=C(c1ccc(F)cc1)N1CCN(Cc2nc3sc4c(c3c(=O)[nH]2)CCCC4)CC1 [Z26985512] | 25 µM (≈ 10.7 µg/mL)
Cc1ccc2nc(-c3ccc(NC(=O)c4cc(-c5ccccc5)nn4-c4ccccc4)cc3)sc2c1 [Z27663993] | 100 µM (≈ 48.7 µg/mL)
O=C(/C=C/c1cn(-c2ccccc2)nc1-c1ccc(F)cc1)N1CCCS/C1=N\c1ccccc1 [Z27871611] | 100 µM (≈ 48.3 µg/mL)
O=C(Nc1nc(-c2cccs2)cs1)c1cc(-c2ccccc2)nc2ccccc12 [Z28307167] | 100 µM (≈ 41.4 µg/mL)
Cc1ccc(-c2cc(C(=O)N3CCN(Cc4nc5ccccc5s4)CC3)c3ccccc3n2)cc1 [Z28583171] | 6.2 µM (≈ 2.97 µg/mL)
N#Cc1ccc(CN2CCN(C(=O)c3cc(-c4ccccc4)nn3-c3ccccc3)CC2)cc1 [Z28887309] | 50 µM (≈ 22.4 µg/mL)
CC1(c2ccc3ccccc3c2)NC(=O)N(CC(=O)Nc2nc(-c3ccc4c(c3)CCC4)cs2)C1=O (stereo not drawn) [Z28888852] | 3.1 µM (≈ 1.54 µg/mL)
Cc1cccc(Oc2ccc(NC(=O)c3nn(-c4ccccc4)c(=O)c4ccccc34)cc2)c1 [Z29906038] | 100 µM (≈ 44.7 µg/mL)
O=C(Nc1ccc2oc3ccccc3c2c1)c1ccc(=O)n(Cc2ccccc2)n1 [Z30534850] | 100 µM (≈ 39.5 µg/mL)
CCn1c2ccccc2c2cc(NC(=O)c3cc(-c4ccccc4)nc4ccccc34)ccc21 [Z30593627] | 100 µM (≈ 44.2 µg/mL)
O=C(NNc1ccc(F)cc1)c1cccc(S(=O)(=O)N2CCc3ccccc3C2)c1 [Z30877419] | 100 µM (≈ 42.5 µg/mL)
Cc1ccc(-c2cc(C(=O)Oc3ccc(Oc4ccccc4)cc3)c3ccccc3n2)cc1 [Z30908638] | 100 µM (≈ 43.1 µg/mL)
COc1cc2c(cc1NC(=O)c1ccccc1-c1ccc(C(F)(F)F)cc1)oc1ccccc12 [Z30927947] | 100 µM (≈ 46.1 µg/mL)
O=S(=O)(c1cccc(C(F)(F)F)c1)N1CCN(c2nc(-c3ccccc3)nc3ccccc23)CC1 [Z31104682] | 100 µM (≈ 49.9 µg/mL)
O=C1C(=CNc2cccc(C(F)(F)F)c2)c2ccccc2C(=O)N1c1cccc(C(F)(F)F)c1 [Z31274934] | 6.2 µM (≈ 2.95 µg/mL)
O=C(Nc1ccc(F)c(S(=O)(=O)Nc2cccc(C(F)(F)F)c2)c1)c1cc2ccccc2o1 [Z33249504] | 50 µM (≈ 23.9 µg/mL)
CN1C(=CC=NNC(=O)c2cn(-c3ccccc3)nc2-c2ccccc2)C(C)(C)c2ccccc21 [Z44838075] | 100 µM (≈ 46.2 µg/mL)
O=C(OCc1nc2sc3c(c2c(=O)[nH]1)CCCC3)c1cn(-c2ccccc2)nc1-c1ccccc1 [Z53787257] | 100 µM (≈ 48.3 µg/mL)

Compound | MIC
O=C(CN1C(=O)NC(c2ccccc2)(c2ccccc2)C1=O)Nc1ccccc1C(=O)NC1CCCC1 [Z54675683] | 100 µM (≈ 49.7 µg/mL)
O=C(COC(=O)c1c2c(nc3ccccc13)CCN(Cc1ccccc1)C2)Nc1c(F)cccc1F [Z55704575] | 100 µM (≈ 48.8 µg/mL)
Cc1nn(-c2ccccc2)c2sc(C(=O)N=C3N=C4C=CC(Br)=CN4Cc4ccccc43)cc12 [Z56688850] | 100 µM (≈ 52.8 µg/mL)
Fc1ccccc1C1Oc2ccccc2C2CC(c3ccc(-c4ccccc4)cc3)=NN21 (stereo not drawn) [Z56764284] | 100 µM (≈ 42 µg/mL)
Fc1ccc(C2Oc3ccccc3C3CC(c4ccc(-c5ccccc5)cc4)=NN32)cc1 (stereo not drawn) [Z56765649] | 25 µM (≈ 10.5 µg/mL)
O=C(N=C1N=C2C=CC=CN2Cc2ccccc21)c1cn(-c2ccccc2)nc1-c1ccc(F)cc1 [Z56787786] | 100 µM (≈ 47.4 µg/mL)
Cc1cc(NC(=O)c2cc(-c3ccc(Cl)cc3)nc3ccccc23)n(-c2ccccn2)n1 [Z56802924] | 100 µM (≈ 44 µg/mL)
Cc1ccc(-c2nn(-c3ccccc3)cc2CCC(=O)Nc2cccc3ccccc23)cc1 [Z56806542] | 100 µM (≈ 43.2 µg/mL)
Cc1ccc2nc(-c3ccc(NC(=O)c4cccc(S(=O)(=O)Nc5cccc(C(F)(F)F)c5)c4)cc3)sc2c1 [Z56810513] | 6.2 µM (≈ 3.52 µg/mL)
Nc1c(-c2ccccc2)c(CN2CCN(c3ccccc3F)CC2)nn1-c1ccc(F)cc1 [Z56903079] | 25 µM (≈ 11.1 µg/mL)
Cc1ccc(-c2cn3c(C(=S)Nc4ccc(F)cc4)c(-c4ccccc4)c4c3n2CCCC4)cc1 [Z57009953] | 100 µM (≈ 48 µg/mL)
O=C(N[C@@H](Cc1ccccc1)c1nc2ccccc2[nH]1)c1ccc(-c2cccc(C(F)(F)F)c2)o1 [Z57992786] | 100 µM (≈ 47.5 µg/mL)
O=C(CN1CCCC1c1ccc2c(c1)OCCCO2)Nc1ccccc1Cc1ccccc1 (stereo not drawn) [Z65195872] | 50 µM (≈ 22.1 µg/mL)
O=C(CN1C(=O)NC2(CCc3ccccc32)C1=O)NC(c1ccccc1)c1ccc(Cl)cc1 (stereo not drawn) [Z65674656] | 100 µM (≈ 46 µg/mL)
Cc1ccc(-c2cc(C(=O)N3CCN(Cc4ccncc4)CC3)c3ccccc3n2)cc1 [Z70806128] | 100 µM (≈ 42.3 µg/mL)
O=C(Nc1ccc(-n2cnc3ccccc32)cc1)c1nn(-c2ccccc2)c(=O)c2ccccc12 [Z82203216] | 100 µM (≈ 45.7 µg/mL)
O=C(Nc1cn(-c2ccccc2)nc1-c1ccc(F)cc1)Nc1cccc2ccccc12 [Z85924883] | 100 µM (≈ 42.2 µg/mL)
O=C(CN1C(=O)NC2(CCc3ccccc32)C1=O)c1c(-c2ccc(F)cc2)[nH]c2ccccc12 (stereo not drawn) [Z89714290] | 25 µM (≈ 11.3 µg/mL)
O=C(CN1C(=O)NC2(CCOc3ccccc32)C1=O)c1c(-c2ccc(F)cc2)[nH]c2ccccc12 (stereo not drawn) [Z89763517] | 3.1 µM (≈ 1.46 µg/mL)
Cc1ccc(-c2nn(Cc3ccccc3)cc2C2NC(=O)c3ccccc3N2)cc1 (stereo not drawn) [Z94792468] | 100 µM (≈ 39.4 µg/mL)
O=C(Nc1ccc2c(c1)OCO2)C1CCN(C(=O)c2nn(-c3ccccc3)c(=O)c3ccccc23)CC1 [Z99494278] | 100 µM (≈ 49.7 µg/mL)
Cc1ccc(-c2cc(C(=O)N3CCC(C(=O)Nc4ccc5c(c4)OCO5)CC3)c3ccccc3n2)o1 [Z99494285] | 100 µM (≈ 48.4 µg/mL)
O=C(c1nn(Cc2ccccc2)c(=O)c2ccccc12)N1CCN(Cc2ccc3c(c2)CCO3)CC1 [Z102666506] | 100 µM (≈ 48.1 µg/mL)
O=C(c1ccc2noc(-c3ccccc3)c2c1)N1CCN(Cc2ccc3c(c2)CCO3)CC1 [Z102669950] | 100 µM (≈ 44 µg/mL)
O=c1[nH]c(CN2CCN(C(c3ccc(F)cc3)c3ccc(F)cc3)CC2)nc2sc3c(c12)CCC3 [Z105382408] | 100 µM (≈ 49.3 µg/mL)
c1cncc(-c2nc(N3CCN(Cc4ccc5c(c4)CCO5)CC3)c3ccccc3n2)c1 [Z128095220] | 25 µM (≈ 10.6 µg/mL)

Compound | MIC
O=C(NN1C(=O)NC(c2ccccc2)(c2ccccc2)C1=O)c1ccc(-c2ccccc2F)o1 [Z137249014] | 100 µM (≈ 45.5 µg/mL)
O=C(CCc1nc2c(cnn2-c2ccccc2)c(=O)[nH]1)N1CCCC1c1ccc2c(c1)OCCCO2 (stereo not drawn) [Z140090268] | 100 µM (≈ 48.6 µg/mL)
NC(=O)C1Cc2ccccc2CN1C(=O)CCc1c(-c2ccc(F)cc2)[nH]c2ccccc12 (stereo not drawn) [Z143202488] | 100 µM (≈ 44.2 µg/mL)
O=c1[nH]c(SCc2cn(-c3ccccc3)nc2-c2ccccc2)nc2c1cnn2-c1ccccc1 [Z150144208] | 3.1 µM (≈ 1.48 µg/mL)
O=C(c1nn(-c2ccccc2)c(=O)c2ccccc12)N1CCCN(Cc2ccc(Cl)cc2)CC1 [Z212593638] | 50 µM (≈ 23.6 µg/mL)
O=C(Cn1c2ccccc2c(=O)c2ccccc21)NC(c1ccccc1)c1cc2ccccc2o1 (stereo not drawn) [Z229616646] | 100 µM (≈ 45.9 µg/mL)
c1cncc(-c2nc(N3CCN(Cc4ccc5ccccc5c4)CC3)c3ccccc3n2)c1 [Z237483836] | 100 µM (≈ 43.2 µg/mL)
O=C(CCc1ccc(-c2ccccc2)o1)N1CCN(c2ccnc3cc(Cl)ccc23)CC1 [Z285125220] | 100 µM (≈ 44.6 µg/mL)
Cc1ccc(-c2ccsc2C(=O)NNS(=O)(=O)c2ccc3oc(=O)ccc3c2)cc1 [Z299677296] | 100 µM (≈ 44.1 µg/mL)
O=C(CN1CCN(C(=O)c2cccc3ccccc23)CC1)Nc1ccccc1Cc1ccccc1 [Z316384350] | 25 µM (≈ 11.6 µg/mL)
Nc1nn(C(=O)c2cc(S(=O)(=O)Nc3cccc(C(F)(F)F)c3)ccc2Cl)c2ccccc12 [Z381337772] | 100 µM (≈ 49.5 µg/mL)
O=C(c1ccccc1)C1CCN(C2c3ccccc3-c3ccccc32)CC1 [Z646019388] | 100 µM (≈ 35.3 µg/mL)
O=C(NCc1ccccc1)c1ccc(Oc2nc(-c3ccccc3)cc(-c3ccccc3)n2)cc1 [Z1037335532] | 100 µM (≈ 45.8 µg/mL)
c1ccc(-c2ccc(Oc3nc(-c4ccccc4)cc(-c4ccccc4)n3)cc2)cc1 [Z1037335802] | 100 µM (≈ 40 µg/mL)
c1ccc(C(c2ccccc2)N2CCN(c3nc4ccccc4c4nc(-c5cccnc5)nn34)CC2)cc1 [Z1157836627] | 100 µM (≈ 49.8 µg/mL)
Clc1ccc(-c2nc(NN=Cc3ccc4ccccc4n3)nc3ccccc23)cc1 [Z1187818773] | 100 µM (≈ 41 µg/mL)
O=C(c1ccccc1)c1ccc(Cl)cc1Nc1cc(-c2ccccc2)c2ccc(Cl)cc2n1 [Z1386458621] | 100 µM (≈ 46.9 µg/mL)
Cc1ccc2c(-c3ccccc3)nc(NN=Cc3c[nH]c4ccccc34)nc2c1 [Z1409330734] | 50 µM (≈ 18.9 µg/mL)
Clc1ccc2nc(N3N=C(c4ccccc4)CC3c3cccc(Br)c3)nc(-c3ccccc3)c2c1 (stereo not drawn) [Z1558470019] | 100 µM (≈ 54 µg/mL)
Cc1ccc(-c2nc(N3N=C(c4cccc(Br)c4)CC3c3cccc(Br)c3)nc3ccccc23)cc1 (stereo not drawn) [Z1558581154] | 100 µM (≈ 59.8 µg/mL)
Cc1cccc(C2CC(c3ccc(N(C)C)cc3)=NN2c2nc(-c3ccc(Cl)cc3)c3ccccc3n2)c1 (stereo not drawn) [Z1898794184] | 100 µM (≈ 51.8 µg/mL)
Oc1nc2cc(Cl)ccc2c(-c2ccccc2)c1-c1cc(-c2ccccc2)c2ccc(Cl)cc2n1 [Z2010009645] | 100 µM (≈ 49.3 µg/mL)
Clc1ccc2c(-c3ccccc3)cc(-c3c(Cl)nc4ccc(Br)cc4c3-c3ccccc3)nc2c1 [Z2039275273] | 100 µM (≈ 55.6 µg/mL)
O=C1c2ccccc2C(=O)N1C(Cc1ccccc1)c1nc2c3ccccc3ncn2n1 (stereo not drawn) [Z2176371175] | 100 µM (≈ 41.9 µg/mL)
O=C(c1ccccc1)c1ccc(Cl)cc1Nc1cc(-c2ccccc2)c2cc(Cl)ccc2n1 [Z2196034878] | 100 µM (≈ 46.9 µg/mL)
Cc1ccc2c(-c3ccccc3)nc(NN=Cc3cnc4ccccc4n3)nc2c1 [Z2488926519] | 100 µM (≈ 39 µg/mL)
